Experimental data: patent US8293465B2, “Method for the detection of human immunodeficiency virus envelope (HIV) glycoprotein utilizing carbohydrate binding module (CBM) 20 or 21” (priority 2009, dated 2012)

Tests used:
[1] = target: T1, RoSBD binding to HIV Ag & Ab positive panel (Rhizopus oryzae, UniProt P07683); test: Competition of HIV-RoSBD binding, ELISA on RoSBD coated plate; settings: 10 mM competitor, FIG. 6A
T1 construct: made in house; host or cells: E. coli (pET23a)
Description: (§1) Ten millimolar maltoheptaose (G7 glycan) and β-cyclodextrin (βCD) (Sigma-Aldrich, St. Louis, Mo.) were dissolved in PBS plus 5% BSA and mixed with the same volume of HIV Ag & Ab positive panel at 37° C. for 1 hr. After adding the mixture to RoSBD coated plate (100 nM in 0.05 M Tris-Hcl, pH 8) or AnSBD coated plate (100 nM in 0.05 M sodium bicarbonate buffer, pH 9.5) at 37° C. for 1 hr, 100 μL HRP coupled HIV1 recombinant gp120 antigen conjugate (0.05 μg/mL) was used for detection.
(§2) HIV Ag & Ab positive panel was separately mixed with the same volume of 500 nM human IgG1 secondary antibody, 2G12 monoclonal antibody, and 250 nM HIV1 gp140 antigen at 37° C. for 1 hr. After adding the mixture to (a) RoSBD coated (100 nM in 0.05 M Tris-Hcl, pH 8) and (b) AnSBD coated plate (100 nM in 0.05 M sodium bicarbonate buffer, pH 9.5) individually at 37° C. for 1 hr, 100 μL HRP coupled HIV1 recombinant gp120 antigen conjugate (0.05 μg/mL) was used for detection.

[2] = target: T2, AnSBD binding to HIV Ag & Ab positive panel (Aspergillus niger, UniProt P69328); settings: 10 mM competitor; AnSBD coated plate; FIG. 6B
T2 construct: made in house; host or cells: E. coli (pET15b, printed 'pET15Bb')
Description: as §1, §2

[3] = Glycan array screening of RoSBD (CFG Core H, version 3.1); type: binding; settings: among 377 glycans; FIG. 1A
Description: RoSBD was produced in E. coli system using pET23a expression vector and purified using amylose resin as previously described. Glycan microarray analyses were conducted by the Consortium for Functional Glycomics, Core H facility. The array contained a total of 377 different natural and synthetic glycans and version 3.1 was used for the analyses reported here. Briefly, RoSBD was diluted to […] in sodium acetate binding buffer (50 mM sodium acetate pH 5.5, 1% BSA and 0.05% Tween-20). Seventy microliters was applied to the printed surface of the array, coverslipped, and incubated at room temperature in a humidified chamber away from light for 1 hr. After the incubation, the coverslip was removed and rinsed four times in TSM buffer [50 mM Tris-HCI (pH 7.5), 10 mM MgCl2, and 0.5 M sucrose] and four times in TSM buffer. Seventy microliters of Anti-RoSBD monoclonal antibody, diluted to 1:200 in PBS binding buffer, was applied to the printed surface of the microarray and incubated in a humidified chamber for 1 hr. Washes were performed as above. To detect binding, the secondary antibody incubation was performed with Alexa488-labeled goat anti-mouse IgG at […] in PBS buffer for one hour in a humidified chamber, followed by wash steps. The binding image was read in a Perkin-Elmer Microarray XL4000 scanner and analyzed using Imagene (V.6) image analysis software. […]

[4] = test system: HIV Ag & Ab positive panel (possibly native HIV gp120 antigen glycoprotein); test: HIV-RoSBD binding analysis, sandwich ELISA on SBD coated plates
Description: At first 100 μL of 100 nM AnSBD/RoSBD were coated on individual well of a 96-well plate (Greiner-Bio One GmbH, Frickenhausen, Germany) in sodium bicarbonate buffer (pH 9.5)/Tris-HCl buffer (pH 8) via 16-hr incubation at 4° C. The plate was washed with PBST [10 mM Phosphate Buffered Saline (pH 7.0) plus 0.05% Tween-20], then 200 μL blocking buffer [0.01 M Phosphate Buffered Saline (pH 7.0) plus 5% BSA] was added to each well and incubated at 37° C. for 2 hr. The blocking buffer was removed and the plate was dried at 25° C. for 1 hr. […] To test the specificity of the SBD binding to HIV, HCV test sample and HCV recombinant antigen (Core+NS3+NS5)-HRP conjugate (0.33 μg/mL) were analyzed following the same protocol in parallel. Finally, the plates were developed by adding 100 μL 3,3′,5,5′-tetramethylbenzidibe (TMB) at 37° C. for […] The absorbance was measured at 450 nm in ELISA reader after the reaction was stopped by addition of 100 μL 2 N H2SO4 in each well. These absorbance values were compiled as a statistical value (Cut off value; COV) and described in terms of cut off index (COI) value. The COV was calculated as the OD value of negative control (Normal Human Serum) plus 0.1 (COV=NC+0.1). The COI value was calculated as the OD value of test sample divided by COV. […]

Row | Molecule | competitive inhibition rate [1] [%] | competitive inhibition rate [2] [%] | glycan recognition (interaction signal on glycan array) [3] | specificity of binding, HIV panel versus Anti-HCV mixed titer performance panel ([4]; Anti-HCV panel PHV205-24 in parallel, P<0.0001, FIG. 4B) | maximal COI value of binding ([4]; HIV Ag & Ab positive panel #9144532, COI > 1 is positive, FIG. 4A)
1 | OC[C@H]1O[C@@H]2O[C@H]3[C@H](O)[C@@H](O)[C@@H](O[C@H]4[C@H](O)[C@@H](O)[C@@H](O[C@H]5[C@H](O)[C@@H](O)[C@@H](O[C@H]6[C@H](O)[C@@H](O)[C@@H](O[C@H]7[C@H](O)[C@@H](O)[C@@H](O[C@H]8[C@H](O)[C@@H](O)[C@@H](O[C@H]1[C@H](O)[C@H]2O)O[C@@H]8CO)O[C@@H]7CO)O[C@@H]6CO)O[C@@H]5CO)O[C@@H]4CO)O[C@@H]3CO [β-cyclodextrin] | 23.1 | 14.3 | – | – | –
2 | maltoheptaose | 24.4 | 45.9 | – | – | –
3 | RoSBD: starch binding domain, CBM family 21, derived from Rhizopus oryzae glucoamylase, produced in E. coli (protein) ASIPSSASVQLDSYNYDGSTFSGKIYVKNIAYSKKVTVIYADGSDNWNNNGNTIAASYSAPISGSNYEYWTFSASINGIKEFYIKYEVSGKTYYDNNNSANYQVST | – | – | only Manα(1,2)Manα(1,2)Manα(1,2)Manα(1,3) (No. 187) showed evident interaction signal | specific | 2.298
